# Reference: PMC11352099 (RSC Medicinal Chemistry, 2024)
# Read-outs that look alike come from different tables or passages of the source.
# What was measured:
# SARS-CoV-2 nsp14 MTase = SARS-CoV-2 nsp14 MTase (Severe acute respiratory syndrome coronavirus 2, UniProt P0DTD1); test: biochemical; format: biochemical; conditions: for IC50: read-out: IC50
# [1] = 120 min, 10 μM
# Caco-2 monolayers = test: in vitro; conditions: Caco-2
# Protocol: (§1) 3.5. Caco-2 permeability assay
# (§2) Transepithelial bi-directional transport of compounds (10 µM, pH 7.4/7.4) was tested on 21-day differentiated Caco-2 monolayers. Briefly, the cells were seeded at a density of 67 ,500 cells per 96-well plate insert (Millicell®, Merck KGaA, Darmstadt, Germany). They were left to differentiate for 21 days with medium exchange every 2–3 days. Prior to the experiment, the medium from both apical and basolateral well was exchanged for HBSS buffer (containing 10 mM HEPES and 25 mM glucose) and left to equilibrate for 30 min. Compound permeability was assayed by replacing pure HBSS with HBSS containing 10 μM compounds and 220 μM Lucifer yellow (LY) solution in an apical insert (A to B transport) or in a basolateral well (B to A transport). The tre ated cells were then returned to the incubator for 2 h at 37 °C. After that, samples were collected from both apical inserts and basolateral wells and analyzed using LC -MS/MS (SCIEX Triple Quad™ 7500 QTRAP® Ready). LC separation was done on Synergi 4µm Fusion 50 × 2 mm column (Phenomenex) using a water/acetonitrile gradient with 0.1% formic acid starting from 2 to 98% for 4.5 min.
# (§3) The apparent permeability coefficient (Papp) was calculated from t he following equation: Papp = (dQ / dt) / C0 * A, where dQ/dt is the rate of absorption of the drug across the cells, C0 is the donor compartment concentration at time zero, and A is the area of the monolayer. Efflux ratio was expressed as (Papp B -A) / (Papp A-B). Recovery (%) was determined as (total compound mass i n donor and receiver compartments at the end of the incubation / initial compound mass in the donor compartment) x 100. The data represent means ± SD of two independent experiments performed in triplicate. […]
# (§4) were used as control compounds.
# in vitro [2] = conditions: human
# Protocol: as §1, §2, §3, §4
# [3] = microsomes, 0.75 h, 10 µM, pH 7.4
# [4] = 120 min, 10 μM; remark: listed apart in the source
# [5] = microsomes, 0.75 h, 10 µM, pH 7.4; remark: listed apart in the source
# [6] = tested on: SARS-CoV-2 strain hCoV-19/Czech Republic/NRL_6632_2/2020; test: microbe, parasite or virus in culture; format: cell-based; conditions: Calu-3 cell line
# in vitro [7] = conditions: mouse, plasma
# human RNMT = human RNMT (Homo sapiens, UniProt O43148); test: Off-target inhibition of human RNMT; format: biochemical; conditions: 25 μM concentration of inhibitor
# Excerpt: Human cells rely on several MTases; therefore, it is necessary to assess the possible off-target effect. […]
# in vitro [8] = conditions: human; remark: listed apart in the source
# human RNMT, sequence (O43148 whole entry): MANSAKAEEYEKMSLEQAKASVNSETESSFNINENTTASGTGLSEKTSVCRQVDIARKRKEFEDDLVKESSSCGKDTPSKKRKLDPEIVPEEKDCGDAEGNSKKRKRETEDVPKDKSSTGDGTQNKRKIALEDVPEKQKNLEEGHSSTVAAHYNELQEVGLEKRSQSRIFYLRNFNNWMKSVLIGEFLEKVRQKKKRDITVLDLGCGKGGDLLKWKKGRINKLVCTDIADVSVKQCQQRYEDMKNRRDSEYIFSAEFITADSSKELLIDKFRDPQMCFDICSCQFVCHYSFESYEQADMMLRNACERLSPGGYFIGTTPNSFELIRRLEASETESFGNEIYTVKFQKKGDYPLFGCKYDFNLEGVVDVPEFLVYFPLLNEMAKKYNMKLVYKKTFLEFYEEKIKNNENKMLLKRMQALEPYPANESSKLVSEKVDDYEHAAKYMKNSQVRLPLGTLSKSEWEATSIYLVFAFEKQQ
compound,measurement,setting,value
Cc1cc(=O)[nH]c2cc(NC(=O)[C@H]3O[C@@H](n4cc(C#Cc5cncnc5)c5c(N)ncnc54)[C@H](O)[C@@H]3O)ccc12 [18n],IC50,"SARS-CoV-2 nsp14 MTase; Table 1 and text, N.I., no inhibition",0.043 ± 0.005 µM
same,Hill slope,"SARS-CoV-2 nsp14 MTase; Table S1, dose-response curve, variable slope model",-1.29
same,IC50,SARS-CoV-2 nsp14 MTase; values printed in Fig. 3 (correlation with GlideScore XP),0.04 µM
same,"Plasma stability % of the parent compound after 120 min, Human",[1],93 ± 0.4%
same,Papp A-B,Caco-2 monolayers,11.3 ± 3.7 cm/s x 10-6
same,Papp B-A,Caco-2 monolayers,7.3 ± 1.3 cm/s x 10-6
same,"efflux ratio at 2 h, 10 µM",in vitro [2]; Caco-2,0.6
same,"recovery at 2 h, 10 µM","in vitro [2]; Caco-2, Recovery (%) A-B",148%
same,"recovery at 2 h, 10 µM","in vitro [2]; Caco-2, Recovery (%) B-A",110%
same,"Papp A→B at 2 h, 10 µM","in vitro [2]; Caco-2, pH 7.4",113 ± 37 nm/s
same,"Papp B→A at 2 h, 10 µM","in vitro [2]; Caco-2, pH 7.4",73 ± 13 nm/s
same,"Microsomal stability % of the parent compound after 45 min, Human",[3],90 ± 2.0%
same,"Plasma stability % of the parent compound after 120 min, Mouse",[4],41 ± 0.7%
same,"Microsomal stability % of the parent compound after 45 min, Mouse",[5],85 ± 0.6%
same,EC50,"[6]; Severe acute respiratory syndrome coronavirus 2, 72 h, MOI ∼0.01, 3 days, read-out: EC50 (antiviral effect)",10 ± 3 µM
same,EC50,"[6]; Severe acute respiratory syndrome coronavirus 2, Table S3, read-out: EC50",9.8 µM
same,"half-life at 2 h, 10 µM",in vitro [7],1.57 h
same,inhibitory activity against RNMT,human RNMT,None of the tested compounds exhibited any inhibitory activity
same,CC50 at 3 days,in vitro [8],> 50 µM
